Here are results for 22 molecules from patent US12655142B2 (Merck Patent GmbH, priority 2019, dated 2026).

Series [1] has as its target T1, GIST430/654 cell line expressing mutated constitutively active cKIT receptor tyrosine kinase (Δ560-576 deletion and V654A point mutation) (Homo sapiens, UniProt P10721, DEL560-576/V654A).
T1 construct: endogenous in cells; host or cells: GIST430/654 cells
Nature of the series: Cellular cKIT autophosphorylation (phospho-Y307-cKIT, Luminex bead assay) in GIST430/654 cells. The class given is cell-based. The conditions noted are these: compounds 45 min, read-out: GIST 430/654 IC50. The essentials:
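GIST430 (Δ560-576) and imatinib-resistant GIST430/654 (plus V654A; grown with 100 nM imatinib) cells were plated in IMDM/15% FCS and treated next day with serially diluted compound for 45 min. Lysates were captured on anti-total-cKIT Luminex beads overnight at 4 °C and probed for phospho-Y307. IC50 was taken from percent of 0.3% DMSO control.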

In the next series the target is T2, c-Kit(V654A) (Homo sapiens, UniProt P10721, V654A).
T2 construct: recombinant human c-Kit, amino acids 544-end containing the V654A mutation; GST (N)
Nature of the series: c-Kit(V654A) assay (33P-ATP filter binding kinase assay). The conditions noted are these: recombinant human c-Kit aa 544-end V654A, ATP 200 μM. The class given is biochemical. The essentials: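 Radiometric filter-binding read-out: substrate 33P incorporation counted by scintillation after P30 filtermat washes in 75 mM phosphoric acid and methanol. Enzyme: N-GST recombinant human c-Kit aa 544-end carrying V654A.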

Series [2] can be described thus: Determination of Efflux-Ratio (ER) in Caco-2 cells. Conditions: human, Caco-2, pH 7.4. Background: Caco-2 cells form a polarised layer with tight junctions and transporters.

The structures appear in SMILES notation. pIC50: −log10 of the molar value.

T1 sequence (P10721 with tags, fused parts or gaps DEL560-576/V654A): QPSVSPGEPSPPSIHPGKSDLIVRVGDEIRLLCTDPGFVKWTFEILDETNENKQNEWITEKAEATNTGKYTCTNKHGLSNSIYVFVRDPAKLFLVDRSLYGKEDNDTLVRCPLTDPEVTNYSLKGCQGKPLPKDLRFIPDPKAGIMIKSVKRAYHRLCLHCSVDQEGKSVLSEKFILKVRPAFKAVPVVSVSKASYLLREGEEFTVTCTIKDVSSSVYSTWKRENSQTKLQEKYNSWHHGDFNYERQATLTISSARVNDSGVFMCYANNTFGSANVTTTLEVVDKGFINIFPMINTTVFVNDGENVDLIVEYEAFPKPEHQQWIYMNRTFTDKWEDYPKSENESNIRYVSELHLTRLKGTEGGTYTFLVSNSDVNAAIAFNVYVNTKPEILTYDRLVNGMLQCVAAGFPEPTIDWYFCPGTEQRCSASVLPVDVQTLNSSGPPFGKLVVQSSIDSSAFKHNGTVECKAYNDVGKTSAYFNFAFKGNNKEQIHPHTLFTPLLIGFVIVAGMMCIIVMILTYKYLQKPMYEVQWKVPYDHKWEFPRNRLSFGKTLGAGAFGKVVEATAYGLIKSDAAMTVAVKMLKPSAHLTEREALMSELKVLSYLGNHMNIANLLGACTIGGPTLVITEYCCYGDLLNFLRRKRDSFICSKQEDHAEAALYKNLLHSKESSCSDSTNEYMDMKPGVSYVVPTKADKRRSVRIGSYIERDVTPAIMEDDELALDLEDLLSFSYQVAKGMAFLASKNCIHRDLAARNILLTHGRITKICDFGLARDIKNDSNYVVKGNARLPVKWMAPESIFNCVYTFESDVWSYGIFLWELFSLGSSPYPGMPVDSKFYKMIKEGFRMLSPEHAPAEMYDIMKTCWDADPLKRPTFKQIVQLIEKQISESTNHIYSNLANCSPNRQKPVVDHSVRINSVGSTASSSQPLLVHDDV
T2 sequence (P10721 544-976 V654A): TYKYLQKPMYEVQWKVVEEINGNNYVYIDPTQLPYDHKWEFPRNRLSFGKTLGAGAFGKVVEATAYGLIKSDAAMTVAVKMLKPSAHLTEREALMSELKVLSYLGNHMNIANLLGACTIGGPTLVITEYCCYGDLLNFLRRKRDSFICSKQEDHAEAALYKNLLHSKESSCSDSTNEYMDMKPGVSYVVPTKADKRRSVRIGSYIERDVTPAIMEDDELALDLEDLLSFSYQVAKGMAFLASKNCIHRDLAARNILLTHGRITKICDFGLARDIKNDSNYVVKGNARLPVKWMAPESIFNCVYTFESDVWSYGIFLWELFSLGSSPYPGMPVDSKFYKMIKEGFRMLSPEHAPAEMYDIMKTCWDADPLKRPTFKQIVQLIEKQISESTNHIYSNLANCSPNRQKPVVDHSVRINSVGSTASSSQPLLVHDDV

Broadly, the efflux ratio is the permeability from basolateral to apical divided by that in the opposite direction, in the common usage. With `Cn1cc(-c2ccc(CNc3cc(-c4cnc5cc(OCCN6CC(S(C)(=O)=O)C6)ccn45)ncn3)cc2)cn1` [A215, (6-{7-[2-(3-methanesulfonyl-azetidin-1-yl)-ethoxy]-imidazo[1,2-a]pyridin-3-yl}-pyrimidin-4-yl)-[4-(1-methyl-1H-pyrazol-4-yl)-benzyl]-amine], the pIC50 was 6.92 in series [1] and 8.00 on c-Kit(V654A). Moreover, the efflux ratio at 2 h, 1 μM in series [2] is above 50.

On to `Cn1cc(-c2ccc(CNc3cc(-c4cnc5cc(OCCN6CCn7nccc7C6)ccn45)ncn3)cc2)cn1` [A216, (6-{7-[2-(6,7-dihydro-4H-pyrazolo[1,5-a]pyrazin-5-yl)-ethoxy]-imidazo[1,2-a]pyridin-3-yl}-pyrimidin-4-yl)-[4-(1-methyl-1H-pyrazol-4-yl)-benzyl]-amine], for which the pIC50 in series [1] is 6.89; at c-Kit(V654A) it was 8.09. Also, the efflux ratio at 2 h, 1 μM in series [2] is below 15.

Consider `Cn1cc(-c2ccc(CNc3cc(-c4cnc5cc(OCCN6CCn7cccc7C6)ccn45)ncn3)cc2)cn1` [A218, (6-{7-[2-(3,4-dihydro-1H-pyrrolo[1,2-a]pyrazin-2-yl)-ethoxy]-imidazo[1,2-a]pyridin-3-yl}-pyrimidin-4-yl)-[4-(1-methyl-1H-pyrazol-4-yl)-benzyl]-amine], for which the pIC50 in series [1] is 6.70; on c-Kit(V654A), 7.96. The efflux ratio at 2 h, 1 μM in series [2] was below 15.

Consider `CN1CCN(CCOc2ccn3c(-c4cc(NCc5ccc(-c6cnn(C)c6)cc5)ncn4)cnc3c2)CCC1=O` [A219, 4-methyl-1-[2-(3-{6-[4-(1-methyl-1H-pyrazol-4-yl)-benzylamino]-pyrimidin-4-yl}-imidazo[1,2-a]pyridin-7-yloxy)-ethyl]-[1,4]diazepan-5-one], for which the figures for the pIC50 (in series [1]; on c-Kit(V654A)) were 7.00 and 7.96, respectively. Further, the efflux ratio at 2 h, 1 μM in series [2] lay in the range of 15 to 50.

Regarding `COC1(C)CCN(CCOc2ccn3c(-c4cc(NCc5ccc(-c6cnn(C)c6)cc5)ncn4)cnc3c2)CC1` [A220, (6-{7-[2-(4-methoxy-4-methyl-piperidin-1-yl)-ethoxy]-imidazo[1,2-a]pyridin-3-yl}-pyrimidin-4-yl)-[4-(1-methyl-1H-pyrazol-4-yl)-benzyl]-amine], the figures for the pIC50 (in series [1]; on c-Kit(V654A)) were 6.85 and 7.96, respectively. The efflux ratio at 2 h, 1 μM in series [2] is below 15.

For the molecule `Cc1nnc2n1CCN(CCOc1ccn3c(-c4cc(NCc5ccc(-c6cnn(C)c6)cc5)ncn4)cnc3c1)C2` [A221, (6-{7-[2-(3-methyl-5,6-dihydro-8H-[1,2,4]triazolo[4,3-a]pyrazin-7-yl)-ethoxy]-imidazo[1,2-a]pyridin-3-yl}-pyrimidin-4-yl)-[4-(1-methyl-1H-pyrazol-4-yl)-benzyl]-amine], the pIC50 in series [1] is 6.40; at c-Kit(V654A), 7.85. Moreover, the efflux ratio at 2 h, 1 μM in series [2] is above 50.

With `Cn1cc(-c2ccc(CNc3cc(-c4cnc5cc(OCCN6CCC(C)(C#N)CC6)ccn45)ncn3)cc2)cn1` [A222, 4-methyl-1-[2-(3-{6-[4-(1-methyl-1H-pyrazol-4-yl)-benzylamino]-pyrimidin-4-yl}-imidazo[1,2-a]pyridin-7-yloxy)-ethyl]-piperidine-4-carbonitrile], the pIC50 in series [1] is 7.03; at c-Kit(V654A) it was 7.77. Besides, the efflux ratio at 2 h, 1 μM in series [2] is below 15.

Regarding `Cn1cc(-c2ccc(CNc3cc(-c4cnc5cc(OCCC(C)(C)N)ccn45)ncn3)cc2)cn1` [A223, {6-[7-(3-amino-3-methyl-butoxy)-imidazo[1,2-a]pyridin-3-yl]-pyrimidin-4-yl}-[4-(1-methyl-1H-pyrazol-4-yl)-benzyl]-amine], the pIC50 was 6.72 in series [1] and 7.96 on c-Kit(V654A). Besides, in series [2], the efflux ratio at 2 h, 1 μM is above 50.

As to `Cn1cc(-c2ccc(CNc3cc(-c4cnc5cc(OCCS(C)(=O)=O)ccn45)ncn3)cc2)cn1` [A224, {6-[7-(2-methanesulfonyl-ethoxy)-imidazo[1,2-a]pyridin-3-yl]-pyrimidin-4-yl}-[4-(1-methyl-1H-pyrazol-4-yl)-benzyl]-amine], the pIC50 was 7.00 in series [1] and 8.19 on c-Kit(V654A). The efflux ratio at 2 h, 1 μM in series [2] is 15 to 50.

Consider `Cn1cc(-c2ccc(CNc3cc(-c4cnc5cc(-c6cnn(C)c6)ccn45)ncn3)cc2)cn1` [A226, 6-[7-(1-methyl-1H-pyrazol-4-yl)imidazo[1,2-a]pyridin-3-yl]-N-{[4-(1-methyl-1H-pyrazol-4-yl)phenyl]methyl}pyrimidin-4-amine], for which the figures for the pIC50 (in series [1]; on c-Kit(V654A)) were 7.29 and 8.38, respectively. Moreover, the efflux ratio at 2 h, 1 μM in series [2] was below 15.

Consider `Cn1cc(-c2ccc(CNc3cc(-c4cnc5cc(N6CCN(C7COC7)CC6)ccn45)ncn3)cc2)cn1` [A230, [4-(1-methyl-1H-pyrazol-4-yl)-benzyl]-{6-[7-(4-oxetan-3-yl-piperazin-1-yl)-imidazo[1,2-a]pyridin-3-yl]-pyrimidin-4-yl}-amine], for which the pIC50 in series [1] is 7.20; on c-Kit(V654A), 7.62. The efflux ratio at 2 h, 1 μM in series [2] is below 15.

`Cn1ncc(-c2ccc(CNc3cc(-c4cnc5cc(OCCCS(C)(=O)=O)ccn45)ncn3)cc2)n1` [A231, {6-[7-(3-methanesulfonyl-propoxy)-imidazo[1,2-a]pyridin-3-yl]-pyrimidin-4-yl}-[4-(2-methyl-2H-[1,2,3]triazol-4-yl)-benzyl]-amine]: the pIC50 in series [1] is 6.60; at c-Kit(V654A), 7.82. Besides, the efflux ratio at 2 h, 1 μM in series [2] was 15 to 50.

As for `Cn1cc(-c2ccc(CNc3cc(-c4cnc5cc(OCCC6(N)COC6)ccn45)ncn3)cc2)cn1` [A233], the figures for the pIC50 (in series [1]; on c-Kit(V654A)) were 6.89 and 8.06, respectively. Also, the efflux ratio at 2 h, 1 μM in series [2] was above 50.

As for `Cn1cc(-c2ccc(CNc3cc(-c4cnc5cc(OCCOCCO)ccn45)ncn3)cc2)cn1` [A234, 2-[2-(3-{6-[4-(1-methyl-1H-pyrazol-4-yl)-benzylamino]-pyrimidin-4-yl}-imidazo[1,2-a]pyridin-7-yloxy)-ethoxy]-ethanol], the pIC50 was 7.15 in series [1] and 8.07 at c-Kit(V654A). Also, the efflux ratio at 2 h, 1 μM in series [2] is below 15.

For the molecule `Cc1nc(-c2ccc(CNc3cc(-c4cnc5cc(OCCO)ccn45)ncn3)cc2)co1` [A236, 2-(3-{6-[4-(2-methyl-oxazol-4-yl)-benzylamino]-pyrimidin-4-yl}-imidazo[1,2-a]pyridin-7-yloxy)-ethanol], the figures for the pIC50 (in series [1]; at c-Kit(V654A)) were 7.13 and 8.82, respectively. For the same molecule, the efflux ratio at 2 h, 1 μM in series [2] is below 15.

For `Cn1cc(-c2ccc(CNc3cc(-c4cnc5cc(OCCCN6CCN(C7CC7)CC6)ccn45)ncn3)cc2)cn1` [A243, (6-{7-[3-(4-cyclopropyl-piperazin-1-yl)-propoxy]-imidazo[1,2-a]pyridin-3-yl}-pyrimidin-4-yl)-[4-(1-methyl-1H-pyrazol-4-yl)-benzyl]-amine], the pIC50 is 7.40 in series [1] and 8.17 on c-Kit(V654A). Further, the efflux ratio at 2 h, 1 μM in series [2] was below 15.

Consider `Cn1cc(-c2ccc(CNc3cc(-c4cnc5cc(N6CCC(O)C6)ccn45)ncn3)cc2)cn1` (stereo not drawn) [A245, 1-(3-{6-[4-(1-methyl-1H-pyrazol-4-yl)-benzylamino]-pyrimidin-4-yl}-imidazo[1,2-a]pyridin-7-yl)-pyrrolidin-3-ol], for which the pIC50 was 7.08 in series [1] and 7.89 on c-Kit(V654A). Besides, the efflux ratio at 2 h, 1 μM in series [2] is above 50.

Take `Cn1cc(-c2ccc(CNc3cc(-c4cnc5cc(N6CC7(COC7)C6)ccn45)ncn3)cc2)cn1` [A246, [4-(1-methyl-1H-pyrazol-4-yl)-benzyl]-{6-[7-(2-oxa-6-aza-spiro[3.3]hept-6-yl)-imidazo[1,2-a]pyridin-3-yl]-pyrimidin-4-yl}-amine]: the pIC50 in series [1] is 7.42; at c-Kit(V654A) it was 8.10. Further, the efflux ratio at 2 h, 1 μM in series [2] was below 15.

Regarding `Cn1cc(-c2ccc(CNc3cc(-c4cnc5cc(N6CCC7(COC7)C6)ccn45)ncn3)cc2)cn1` [A247, [4-(1-methyl-1H-pyrazol-4-yl)-benzyl]-{6-[7-(2-oxa-6-aza-spiro[3.4]oct-6-yl)-imidazo[1,2-a]pyridin-3-yl]-pyrimidin-4-yl}-amine], the results for the pIC50 (in series [1]; on c-Kit(V654A)) were 7.21 and 8.11, respectively. In series [2], the efflux ratio at 2 h, 1 μM is below 15.

As to `CN1CC2(CN(CCOc3ccn4c(-c5cc(NCc6ccc(-c7cnn(C)c7)cc6)ncn5)cnc4c3)C2)OC1=O` [A248, 7-methyl-2-[2-(3-{6-[4-(1-methyl-1H-pyrazol-4-yl)-benzylamino]-pyrimidin-4-yl}-imidazo[1,2-a]pyridin-7-yloxy)-ethyl]-5-oxa-2,7-diaza-spiro[3.4]octan-6-one], the pIC50 was 6.80 in series [1] and 7.68 on c-Kit(V654A). In series [2], the efflux ratio at 2 h, 1 μM is above 50.

Regarding `CC(Nc1cc(-c2cnc3cc(OCCCN4CCC4)ccn23)ncn1)c1ccc(-c2cnn(C)c2)cc1` (stereo not drawn) [A249, {6-[7-(3-azetidin-1-yl-propoxy)-imidazo[1,2-a]pyridin-3-yl]-pyrimidin-4-yl}-{1-[4-(1-methyl-1H-pyrazol-4-yl)-phenyl]-ethyl}-amine], the pIC50 was 6.36 in series [1] and 7.06 on c-Kit(V654A). Moreover, the efflux ratio at 2 h, 1 μM in series [2] is above 50.

Take `CC(Nc1cc(-c2cnc3cc(OCCCN4CCCC4)ccn23)ncn1)c1ccc(-c2cnn(C)c2)cc1` (stereo not drawn) [A250, {1-[4-(1-methyl-1H-pyrazol-4-yl)-phenyl]-ethyl}-{6-[7-(3-pyrrolidin-1-yl-propoxy)-imidazo[1,2-a]pyridin-3-yl]-pyrimidin-4-yl}-amine]: the pIC50 is 6.39 in series [1] and 6.96 at c-Kit(V654A). Also, the efflux ratio at 2 h, 1 μM in series [2] is above 50.
